# Experimental data: patent publication US6953814B2, “Natural insect repellant” (Stratacor, Inc., priority 1997, dated 2005)
# Read-outs that look alike come from different tables or passages of the source.
# Experiments:
# [1] = test system: Aedes aegypti mosquitoes; details: 0.31 mg/cm^2; cited from earlier work
# [2] = Vapor pressure; format: physicochemical; details: for Vol. (vapor pressure), (est): at 125° C., estimated or extrapolated from literature values
# [3] = test system: mosquitoes; details: Hill et al. 1979; cited from earlier work
# [4] = test system: Aedes aegypti mosquitoes; assay: Mosquito repellency on gauze or polyester film (olfactometer); format: in vivo; details: Aedes aegypti, 0.05 h, cotton gauze or polyester film, 0.3 mg/cm^2, 3 minutes after application; read-out: Percent Repellency
# Description: Olfactometer: A Fiensod and […] olfactometer, as modified by Bowen and Davis, measured the host-oriented flight response of female mosquitoes to volatile host emanations (Feinsod, F. M., and […]; An olfactometer for measuring host-seeking behavior of female Aedes aegypti (Diptera: Culicidae); J. Med. Entomol., 15: 282-285, 1979). The olfactometer (approximately 38 cm high) consisted of an upper and lower screened chamber with a closure between the chambers (FIG. 8). A fan placed above the upper chamber drew air through the apparatus at approximately 0.2 m/s. A temperature and humidity controlled chamber (5' wide by 6' long by 8' high) was constructed to house the test subject and the olfactometer. Rearing of Mosquitoes: A second environmental chamber, maintained at 27° C. and 80% humidity, was dedicated to the rearing of Aedes aegypti mosquitoes. […] Assays for Attraction of Mosquitoes to Human Subjects: A group of 30 volunteers, consisting of 14 females and 16 males and ranging in age from 24 to 68 years, was selected from the surrounding civilian population. Individuals were tested for their ability to attract Aedes aegypti mosquitoes contained in the olfactometer. Tests were conducted at a temperature of 27° C. and 50% relative humidity. […] A small fan was placed on top of the upper chamber to cause an air flow from the lower chamber to the upper chamber. A trial began when the closure between the upper and lower chamber was opened in the absence of a human host. […] This trial was repeated twice during a test session to obtain three replicates. Two additional test sessions, at time intervals of at least 1 week, were conducted to obtain at least 8-9 replicates for each of 24 subjects. Of the remaining 6 subjects, 3 were tested on two separate occasions for a total of 6 replicates per subject; 3 were tested on one occasion for a total of 3 replicates per subject. A total of 254 tests were conducted. Test compounds were dissolved in acetone or ethanol at a concentration of 150 mg/5 cc. Ethanol solutions of carboxylic acids were prepared just prior to use. Five hundred microliters of these solutions were applied to a 50 cm^2 circular area of a single layer of cotton gauze (Curity Curad gauze, Futuro Inc., Milford, Ohio) or nonwoven polyester film ([…], Inc.). The resultant dose was 0.3 mg/cm^2. […] The cup was attached to the bottom of the olfactometer (FIG. 8) so that air flowed through the stainless steel screen of the cup, through the treated gauze or film, and through the olfactometer. A volunteer's forearm was placed under the cup, so that air drawn into the cup and olfactometer was laden with human skin emanations. Tests were conducted as described in the preceding paragraph, “Assays for attraction of mosquitoes to human subjects”. Percent repellency was determined from the fraction of mosquitoes entering the lower chamber over a seven minute period. This assay is an approximate measure of the intrinsic repellency of a compound. Good repellency in this test is a necessary, but not sufficient, condition for good repellency on skin. Mosquito repellents must produce a vapor over the skin surface to confuse the host seeking behavior of the insect. However, volatilization must not be so great that the repellent action rapidly dissipates. Since volatilization from the skin will be different from an inanimate surface, skin tests are necessary to confirm that a compound will be a practical repellent.
# [5] = test system: Aedes aegypti mosquitoes; assay: Mosquito repellency on skin (olfactometer, human forearm); format: in vivo; details: for repellency immediately after application to skin, compared to DEET: FIG. 4; for Percent Repellency 2 h: 0.3 mg/cm^2, 2 h after application; for Percent Repellency 4 h: 0.3 mg/cm^2, 4 h after application
# Description: Olfactometer: A Fiensod and Spielman olfactometer, as modified by Bowen and Davis, measured the host-oriented flight response of female mosquitoes to volatile host emanations (Feinsod, F. M., and A. Spielman; An olfactometer for measuring host-seeking behavior of female Aedes aegypti (Diptera: Culicidae); J. Med. Entomol., 15: 282-285, 1979). The olfactometer (approximately 38 cm high) consisted of an upper and lower screened chamber with a closure between the chambers (FIG. 8). A fan placed above the upper chamber drew air through the apparatus at approximately 0.2 m/s. A temperature and humidity controlled chamber (5′ wide by 6′ long by 8′ high) was constructed to house the test subject and the olfactometer.
# Rearing of Mosquitoes: A second environmental chamber, maintained at 27° C. and 80% humidity, was dedicated to the rearing of Aedes aegypti mosquitoes. Routine shipments of eggs (American Biological Supply, Gainesville, Fla.) were used to maintain a continuous supply of adult 5-10 day old mosquitoes.
# Assays for Attraction of Mosquitoes to Human Subjects: A group of 30 volunteers, consisting of 14 females and 16 males and ranging in age from 24 to 68 years, was selected from the surrounding civilian population. Individuals were tested for their ability to attract Aedes aegypti mosquitoes contained in the olfactometer. Tests were conducted at a temperature of 27° C. and 50% relative humidity. For each trial 15 avid adult female Aedes aegypti mosquitoes (5-10 days post-emergence) were placed in the upper chamber. A small fan was placed on top of the upper chamber to cause an air flow from the lower chamber to the upper chamber. A trial began when the closure between the upper and lower chamber was opened in the absence of a human host. The number of mosquitoes entering the lower chamber within a 3 minute period was recorded. The volunteer then placed his or her arm beneath the lower chamber and the number of mosquitoes flying from the upper chamber to the lower chamber was recorded for the time intervals 0-1, 1-3, 3-5 and 5-7 minutes. This trial was repeated twice during a test session to obtain three replicates. Two additional test sessions, at time intervals of at least 1 week, were conducted to obtain at least 8-9 replicates for each of 24 subjects. Of the remaining 6 subjects, 3 were tested on two separate occasions for a total of 6 replicates per subject; 3 were tested on one occasion for a total of 3 replicates per subject. A total of 254 tests were conducted.
# Test compounds were dissolved in acetone or ethanol at a concentration of 300 mg/5 cc. Ethanol solutions of carboxylic acids were prepared just prior to use. Three hundred and fifty microliters of these solutions were applied to a 70 cm^2 rectangular area of the forearm. The resultant dose was 0.3 mg/cm^2. The repellent treated area was allowed to dry for 5 minutes prior to test. The treated skin area was placed under the olfactometer and tests were conducted as described in the preceding paragraph, “Assays for attraction of mosquitoes to human subjects”. Percent repellency was determined from the fraction of mosquitoes entering the lower chamber over a seven minute period.
# A commercial formulation of DEET (Skintastic, S. C. Johnson, Racine,) was applied to a 100 cm^2 area on the forearm of 1 volunteer (subject 02) to give a dose of 0.3 mg/cm^2 of DEET. A formulation of C8C9C10 (5% octanoic, 5% nonanoic, 5% decanoic in Dow Corning 345 volatile silicone fluid) was applied to a 100 cm^2 on the subject's other arm to give a dose of 0.3 mg/cm^2 total acids. Application sites were placed under the olfactometer at 1, 2 and 4 hours after treatment. Untreated areas on each arm were placed under the olfactometer at the completion of the treated area tests to check the avidity of the mosquitoes. Tests were done on four separate test days. […]
# [6] = test system: Aedes aegypti mosquitoes; assay: as above; format: in vivo; details: on skin
# [7] = test system: yellow fever mosquito (Aedes aegypti (L.)); details: human skin, approximately 2 mg/cm^2, time until two bites; DEET from Gilbert 1957; cited from earlier work
# [8] = test system: malaria mosquito (Anopheles quadrimaculatus Say); details: human skin, approximately 2 mg/cm^2, time until two bites; cited from earlier work
# [9] = rabbit, in vivo; cited from earlier work
# [10] = cited from earlier work
# [11] = cited from earlier work; remark: listed apart in the source
# [12] = test system: Aedes aegypti; details: King 1954; cited from earlier work
compound,measurement,setting,value
CCCCCCCCCC=CC(=O)O [2-Dodecenoic Acid],Protection time against Aedes aegypti mosquitoes,[1],2 h
"CCCC(O)C(CC)CO (centres unmarked) [2-Ethyl-1,3-hexanediol, reference compound]",volatility relative to DEET,[2]; from vapor pressures of Table 7,twice as volatile as DEET
same,protects against mosquitoes for,[3],3 to 4 h
CCCCCCC=CC(=O)O [2-Nonenoic Acid],Protection time against Aedes aegypti mosquitoes,[1],2 h
"CCCCCC=CC(=O)O [2-Octenoic acid, 2-Octenoic Acid]",pest or weed control at 0.3 mg/cm2,[4],97 ± 5%
same,"repellency immediately after application to skin, compared to DEET",[5],less repellent
same,Percent Repellency 2 h,[5]; on skin,29 (1) %
same,Percent Repellency 4 h,[5]; on skin,27 (1) %
same,"Vol. (vapor pressure), (est)",[2],10.8 mm Hg
"CCC=CC(=O)O [2-Pentenoic acid, 2-Pentenoic Acid]",pest or weed control at 0.3 mg/cm2,[4],100%
same,"Vol. (vapor pressure), (est)",[2],92 mm Hg
CCCCCC(C)=CC(=O)O [3-Methyl-2-octenoic acid],pest or weed control at 0.3 mg/cm2,[4],95%
same,"repellency immediately after application to skin, compared to DEET",[5],less repellent
same,Percent Repellency 2 h,[5]; on skin,40 ± 5 (3) %
same,Percent Repellency 4 h,[5]; on skin,47 ± 21%
same,Percent Repellency 8 h,"[5]; on skin, 0.3 mg/cm^2, 8 h after application",60%
same,"Vol. (vapor pressure), (est)",[2],6 (est) mm Hg
same,Percent Repellency 2 h,"[6]; 0.6 mg/cm^2, 2 h after application",73% (1)
same,Percent Repellency 4 h,"[6]; 0.6 mg/cm^2, 4 h after application",40 (1) %
"CCC(C)=CC(=O)O [3-Methyl-2-pentenoic acid, 3-Methyl-2-pentenoic Acid]",pest or weed control at 0.3 mg/cm2,[4],65%
same,"Vol. (vapor pressure), (est)",[2],49.5 mm Hg
CCC(C)CC(=O)O (centres unmarked) [3-Methylpentanoic Acid],pest or weed control at 0.3 mg/cm2,[4],43 ± 14%
same,"Vol. (vapor pressure), (est)",[2],49.5 mm Hg
CCCCC/C=C\C/C=C\C/C=C\C/C=C\CCCC(=O)O [Arachidonic Acid],Protection time against Aedes aegypti mosquitoes,[1],<0.25 h
CCCCCCCCCC(=O)O [Decanoic acid],pest or weed control at 0.3 mg/cm2,[4],93 to 100%
same,Percent Repellency 2 h,[5]; on skin,53 (1) %
same,Percent Repellency 4 h,[5]; on skin,73 (1) %
same,Protection time against yellow fever mosquitoes,[7],300+ min.
same,Protection time against malaria mosquitoes,[8],61 to 90 min
same,Skin irritation,[9],moderate to severe irritation
CCCCCCCCCCCC(=O)O [Dodecanoic acid],"Vol. (vapor pressure), (est)",[2],0.57 mm Hg
"CCCCCCC(=O)O [Ethanthic, ethanthic acid, reference compound]",Protection time against yellow fever mosquitoes,[7],121 to 180 min
same,Protection time against malaria mosquitoes,[8],90+ min.
CCCCC/C=C\C/C=C\CCCCCCCC(=O)O [Linoleic Acid],Protection time against Aedes aegypti mosquitoes,[1],<0.25 h
CCCCCCCCC(=O)O [Nonanoic acid],pest or weed control at 0.3 mg/cm2,[4],93 to 100%
same,"repellency two hours after skin application, ranking",[5]; FIG. 5,highest repellency
same,Percent Repellency 2 h,[5]; on skin,66 (1) %
same,Percent Repellency 4 h,[5]; on skin,47 (1) %
same,Protection time against yellow fever mosquitoes,[7],180+ min.
same,Protection time against malaria mosquitoes,[8],31 to 60 min
same,Skin irritation,[9],moderate irritation
same,Irritation or sensitization reactions,[10]; in vivo,no irritation or sensitization reactions
same,Erythema,[11]; in vivo,Erythema was observed
CCCCCCCC(=O)O [Octanoic acid],pest or weed control at 0.3 mg/cm2,[4],87 ± 1%
same,"repellency immediately after application to skin, compared to DEET",[5],comparable to DEET
same,Percent Repellency 2 h,[5]; on skin,36 (1) %
same,Percent Repellency 2 h,"[5]; on skin, listed as octanoic acid",36%
same,Skin irritation,[9],moderate to severe irritation
same,Irritation or sensitization reactions,"[10]; 1% in petrolatum, skin of human subjects",no irritation or sensitization reactions
same,Erythema,"[11]; repeated applications of 0.5 M propanol solutions, occlusive, human males",Erythema was observed
CCCCCCCC/C=C\CCCCCCCC(=O)O [Oleic Acid],Protection time against Aedes aegypti mosquitoes,[1],<0.25 h
CCCCCCCCCCC(=O)O [Undecanoic acid],pest or weed control at 0.3 mg/cm2,[4],93 to 100%
same,"Vol. (vapor pressure), (est)",[2],1.5 (est) mm Hg
same,Protection time against yellow fever mosquitoes,[7],300+ min.
same,Protection time against malaria mosquitoes,[8],90+ min.
C=CCCCCCCCCC(=O)O [Undecylenic Acid],Protection time against Aedes aegypti mosquitoes,[1],3.5 h
O=C1CCCCN1 [Valerolactam],pest or weed control at 0.3 mg/cm2,[4],20%
O=C(c1ccccc1)c1ccccc1 [benzophenone],repellent to Aedes aegypti,[12],repellent
CC(C)OC(=O)CCCCC(=O)OC(C)C [diisopropyl adipate],repellent to Aedes aegypti,[12],repellent
